Results taken from article PMC7918738, “Microtubule Destabilizing Sulfonamides as an Alternative to Taxane-Based Chemotherapy” (International Journal of Molecular Sciences, 2021).
“And” between values parts separate entries of the source, which are not always exact repeats. Equal values may be shown once.

Key:
SKOV3 cells = experiment: Annexin V-FITC/PI cell death quantification in SKOV3; assay type: cell-based, human; conditions: SKOV3, 72 h; 38 600 nM, 42 50 nM, 45 400 nM, paclitaxel 10 nM
Procedure: (§1) To determine whether the cytotoxic/antiproliferative effect of the MDS was due to apoptosis induction, cells were treated with variable concentrations of the drug for 72 h or 6 days, stained with Annexin V-FITC (AnV) and propidium iodide (PI), and analyzed by flow cytometry. Double negative cells (AnV^−/PI^−) were classified as live cells (L), cells positive for AnV and negative for PI (AnV^+/PI^−) were considered in Early Apoptosis (EA), cells negative for AnV and positive for PI (AnV^−/PI^+) were considered necrotic (N), and double-positive cells (AnV^+/PI^+) as Late Apoptosis (LA). In all cases, the compounds were used at the same concentrations previously used in cell cycle studies (Table 5).
(§2) MCF7, SKOV-3, and HeLa apoptotic cells were quantified using an Annexin V-FITC/PI apoptosis detection kit (Immunostep, Salamanca, Spain) according to the manufacturer’s guidelines. 1.5 mL/well of cells in the exponential growth phase at 2·10^4 cells/mL were seeded onto 12-well plates and left to attach overnight. After 24 h incubation, cells were treated with selected compounds. After 72 h (MCF7, SKOV-3, and HeLa) and 6 days (MCF7) post-treatment, attached and floating cells of treated and untreated wells were collected, centrifuged, resuspended in Annexin V binding buffer, and stained with Annexin V-FITC/PI. Cells were then incubated in darkness at room temperature for 15 min and a total of 30,000 cells were acquired and analyzed using the BD Accuri™ C6 Plus Flow Cytometer and Software (version 1.0.264.21, BD Biosciences, San José, CA, USA), respectively. Compounds were dissolved in DMSO and the final solvent concentration never exceeded 0.5% (v/v). Control wells included cells with 0.5% (v/v) DMSO.

HeLa cells = experiment: Annexin V-FITC/PI cell death quantification in HeLa; assay type: cell-based, human; conditions: 38 600 nM, 42 50 nM, 45 400 nM
Procedure: as §1, §2

[1] = system: A2780 ovarian carcinoma cells; experiment: Antiproliferative activity against A2780 (MTT); assay type: cell-based; conditions: Homo sapiens, 72 h
Procedure: The in vitro antiproliferative activity of compounds 38, 42, and 45 against a panel of five human ovarian carcinoma cell lines (SKOV3, IGROV-1, A2780, OVCAR-8, and OVCAR-3) was evaluated by a colorimetric method (Table 3) and compared with paclitaxel. […] For SKOV3, the potency reduction observed for paclitaxel together with a sustained or improved (42 with a 7 nM IC50 value) potency for MDS results in a more favorable profile of the MDS compared to paclitaxel.
MCF7 (human breast carcinoma), SKOV-3 (human ovarian carcinoma), OVCAR-3 (human ovarian carcinoma), OVCAR-8 (human ovarian carcinoma), and HeLa (human cervical carcinoma) cell lines were cultured in Dulbecco’s Modified Eagle’s Medium (DMEM) (Gibco, Thermo Fischer Scientific) containing 10% (v/v) heat-inactivated fetal bovine serum (HIFBS) (Lonza-Cambrex, Karlskoga, Sweden), 2 mM L-glutamine (Lonza-Cambrex, Karlskoga, Sweden), 100 μg/mL streptomycin, and 100 IU/mL penicillin (Lonza-Cambrex) at 37 °C in humidified 95% air and 5% CO2. […]
MCF7, HeLa, and HT-29 cell proliferation, when treated with the corresponding compounds, were determined using the XTT (sodium 3’-[1(phenylaminocarbonyl)-3,4-tetrazolium]-bis(4-methoxy-6-nitro)-benzenesulfonic acid hydrate) cell proliferation kit (Roche Molecular Biochemicals, Mannheim, Germany). […] The absorbance of the formazan product generated was measured at 450 nm using a multi-well plate reader. SKOV-3, OVCAR-3, OVCAR-8, IGROV-1, A-2780 cell proliferation, when treated with the corresponding compound, were determined using MTT (3-(4,5-dimethylthiazol-2-yl)-2,5-diphenyl-2H-tetrazolium bromide) (Sigma-Aldrich, St. Louis, MO, USA). […] Absorbance was measured at 570 nm in a plate reader (Ultra Evolution, Tecan, Männedorf, Suiza). […] After 24 h incubation, to allow cells to attach to the plates, all compounds were added at 1 µM concentration and the effect on the proliferation was evaluated 72 h post-treatment. […]

MCF7 cells = experiment: Annexin V-FITC/PI cell death quantification in MCF7; assay type: cell-based, human; conditions: 38 600 nM, 42 50 nM, 45 400 nM; for Annexin V-FITC/PI 72 h EA (early apoptosis) / Annexin V-FITC/PI 72 h LA (late apoptosis) / Annexin V-FITC/PI 72 h Live / Annexin V-FITC/PI 72 h Necrosis / Annexin V-FITC/PI 6 Days EA (early apoptosis) / Annexin V-FITC/PI 6 Days LA (late apoptosis) / Annexin V-FITC/PI 6 Days Live / Annexin V-FITC/PI 6 Days Necrosis: CA-4 50 nM; for Annexin V-FITC/PI 6 Days EA (early apoptosis) / Annexin V-FITC/PI 6 Days LA (late apoptosis) / Annexin V-FITC/PI 6 Days Live / Annexin V-FITC/PI 6 Days Necrosis: MCF7, 6 days
Procedure: as §1, §2

Compound	Annexin V-FITC/PI 72 h EA (early apoptosis) (SKOV3 cells)	Annexin V-FITC/PI 72 h LA (late apoptosis) (SKOV3 cells) [%]	Annexin V-FITC/PI 72 h Live (SKOV3 cells) [%]	Annexin V-FITC/PI 72 h Necrosis (SKOV3 cells) [%]	Annexin V-FITC/PI 72 h EA (early apoptosis) (HeLa cells) [%]	Annexin V-FITC/PI 72 h LA (late apoptosis, double-positives) (HeLa cells) [%]	Annexin V-FITC/PI 72 h Necrosis (HeLa cells) [%]	IC50 [1] [nM]	Annexin V-FITC/PI 72 h EA (early apoptosis) (MCF7 cells; MCF7, 72 h)	Annexin V-FITC/PI 72 h LA (late apoptosis) (MCF7 cells; MCF7, 72 h) [%]	Annexin V-FITC/PI 72 h Live (MCF7 cells; MCF7, 72 h)	Annexin V-FITC/PI 72 h Necrosis (MCF7 cells; MCF7, 72 h) [%]	Annexin V-FITC/PI 6 Days EA (early apoptosis) (MCF7 cells)	Annexin V-FITC/PI 6 Days LA (late apoptosis) (MCF7 cells) [%]	Annexin V-FITC/PI 6 Days Live (MCF7 cells)	Annexin V-FITC/PI 6 Days Necrosis (MCF7 cells) [%]	further results
COc1ccc(S(=O)(=O)N(C)c2cc(OC)c(OC)c(OC)c2)cc1N [Compound 42]	12.2%	2.0	85.1	0.7	1.4	82.0	9.4	42	9% and 8.5%	2.3	88% and 87.7%	1.4	19% and 18.9%	1.7	79% and 79.1%	0.3	Phosphatidylserine exposure (Annexin V-positive MCF7 cells) (MCF7 cells; MCF7, 72 h): 11%
CNc1ccc(S(=O)(=O)N(C)c2cc(OC)c(OC)c(OC)c2)cc1 [Compound 38]	31% and 30.5%	5.4	62.3	1.8	1.1	87.6	10.6	68	29%	5.4	60% and 60.5%	5.1	45.0%	2.7	52.0%	0.3	–
COc1ccc(/C=C\c2cc(OC)c(OC)c(OC)c2)cc1O [Combretastatin A-4, reference compound]	–	–	–	–	–	–	–	–	–	3.3	–	6.7	–	2.7	–	0.4	Annexin V-FITC/PI 72 h EA (early apoptosis) (MCF7 cells; MCF7, 72 h, listed as CA-4): 32% and 31.7%; Annexin V-FITC/PI 72 h Live (MCF7 cells; MCF7, 72 h, listed as CA-4): 58% and 58.3%; Annexin V-FITC/PI 6 Days EA (early apoptosis) (MCF7 cells; listed as CA-4): 52.4%; Annexin V-FITC/PI 6 Days Live (MCF7 cells; listed as CA-4): 44.5%
COc1ccc(S(=O)(=O)N(Cc2ccccc2)c2cc(OC)c(OC)c(OC)c2)cc1N [Compound 45]	23% and 23.4%	2.6	72.7	1.3	1.5	84.9	12.7	104	20% and 20.1%	7.5	71% and 70.5%	1.9	39.3%	3.8	56.7%	0.3	–
